Data on 30 compounds can be found in patent US7462599B2, “Use of effectors of glutaminyl and glutamate cyclases” (Probiodrug AG, priority 2003, dated 2008).

Several values for one entry are separate records, joined by “and”; a condition that tells them apart may be missing. Equal values may be shown once. Bridge positions count the residues as written; N and C are the ends. Square brackets hold non-standard residues; d marks the D form. Ends that are not written are not given here. Peptide text beside a SMILES is read from it. β3hQ = NC(=O)CC[C@H](N)CC(=O)O A value given as a limit tells only on which side of the number the result lay.

For data set [1], the target named is T1, QC (Homo sapiens, UniProt Q16769). Put plainly: Discontinuous method for QC kinetic parameters. It is filed as biochemical.
The target in data set [2] is T1, QC. The data set can be described thus: Continuous spectrophotometric assay of substrate conversion, human QC.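 As to all read-outs here: initial rates read at 30 °C in a microplate reader, with activity quantified against an ammonia calibration curve under the same assay conditions.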 It is filed as biochemical. On the set-up: The cDNA of the mature QC starting with codon 38 was fused in frame with the plasmid encoded 6× histidine tag; 6x histidine tag; made in house; host or cells: Pichia pastoris X33 (pPICZαB); also E. coli M15 (pQE-31). Conditions: for Ki*: for substrate inhibition; for Ki* / Ki: n.i. = no inhibition.
Description: The initial velocities were evaluated and the enzymatic activity was determined from a standard curve of ammonia under assay conditions. All samples were measured at 30° C., using either the [sequence]luor Plus or the Sunrise (both from TECAN) reader for microplates. Kinetic data was evaluated using GraFit software.

Another data set concerns mammalian QC. Conditions: Busby et al. 1987; cited from earlier work.
How the values of data set [3] were obtained:
H-Glu(OMe)-βNA and H-Glu-βNA. […] These fluorogenic substrates were analyzed fluorometrically, utilizing pyroglutamyl aminopeptidase as auxiliary enzyme.

Data set [4] has as its target T1, QC. Put plainly: Fluorometric QC assay with pyroglutamyl aminopeptidase as auxiliary enzyme, human QC. It is filed as biochemical. Details: The cDNA of the mature QC starting with codon 38 was fused in frame with the plasmid encoded 6× histidine tag; 6x histidine tag; made in house; host or cells: Pichia pastoris X33 (pPICZαB); also E. coli M15 (pQE-31). Conditions: for conversion by human QC: analyzed fluorometrically; for inhibition of human QC by the peptide: H-Gln-AMC as substrate. The source says: Excitation/emission wavelengths were 320/410 nm.
H-Glu(OMe)-βNA and H-Glu-βNA.

Data set [5] concerns the target T1, QC. The data set can be described thus: Inhibitor assay, human QC catalyzed reaction (Ki determination). The data set is classed as biochemical. On the set-up: The cDNA of the mature QC starting with codon 38 was fused in frame with the plasmid encoded 6× histidine tag; 6x histidine tag; made in house; host or cells: Pichia pastoris X33 (pPICZαB); also E. coli M15 (pQE-31).

In data set [6] the target is T1, QC. Put plainly: Enzyme inactivation/reactivation of human QC. The data set is classed as biochemical. Details: The cDNA of the mature QC starting with codon 38 was fused in frame with the plasmid encoded 6× histidine tag; 6x histidine tag; made in house; host or cells: Pichia pastoris X33 (pPICZαB); also E. coli M15 (pQE-31).
[7] abbreviates: 0.05 M Tris-HCl, pH 8.0, 0.5 M KCl.
Setting [8] is: recombinant human QC, buffer containing 1% DMSO.

T1 sequence (Q16769 29-361): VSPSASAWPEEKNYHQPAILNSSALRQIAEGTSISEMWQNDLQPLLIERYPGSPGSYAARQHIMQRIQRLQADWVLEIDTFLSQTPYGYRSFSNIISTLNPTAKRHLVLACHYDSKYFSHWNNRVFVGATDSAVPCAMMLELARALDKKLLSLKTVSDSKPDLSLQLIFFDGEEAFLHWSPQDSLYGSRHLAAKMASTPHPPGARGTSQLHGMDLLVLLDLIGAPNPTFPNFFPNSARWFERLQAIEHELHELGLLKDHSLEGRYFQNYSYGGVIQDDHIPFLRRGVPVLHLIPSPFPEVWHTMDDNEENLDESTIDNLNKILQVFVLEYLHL

As to `NC(=O)CC[C@H](NC(=O)[C@@H](N)CCC(N)=O)C(=O)O` [H-Gln-Gln-OH] (H-Gln-Gln-OH), the Km (usually the concentration of substrate that gives half-maximal velocity) was found to be 175 ± 18 µM at QC [1] and 148 ± 5 µM at QC [2]. Moreover, the kcat – broadly, the number of substrate molecules converted per active site and unit of time at saturation – on QC [1] (discontinuous method) amounted to 21.3 ± 0.6 s⁻¹; on QC [2] (Table 6, n.r. = not reactive), 20.7 ± 0.2 s⁻¹. Besides, on QC [2] (Table 6), the “Ki*” value is “n.i”.
For reduced 6-methylpterin, the “inhibition of mammalian QC” value in the data set on mammalian QC is listed as “Inhibition of a mammalian QC was only detected”.
In the case of `NC(=O)CC[C@H](N)C(=O)O` [H-Gln-OH], on QC [2] (Table 6, n.r. = not reactive), the KM entry was “n.r” and the catalytic constant (kcat) entry is listed as “n.r”.
As for `N[C@@H](CCC(=O)O)C(=O)Nc1ccc2ccccc2c1` [Glu-βNA, H-Glu-βNA], the “limiting rate constant for nonenzymatic turnover (estimate, no product formed)” value in data set [3] (pH 6.0, 4 weeks) is at most 1e-09 s⁻¹. Moreover, the “conversion by human QC” value at QC [4] was “Neither of these compounds were converted”.
For H-QAAAA-NH2 [H-Gln-Ala-Ala-Ala-Ala-NH2], at QC [2] (Table 7, substrate length), the Michaelis constant (Km) was found to be 65 ± 3 µM and the turnover number (kcat) is 60.5 ± 0.7 s⁻¹.
As to `COC(=O)CC[C@H](N)C(=O)Nc1ccc2ccccc2c1` [H-Glu(OMe)-βNA, H-Glu(OMe)-β-naphthylamide], in data set [3], the “stability in Tris and Tricine buffers (non-enzymatically catalyzed cyclization)” value was “remarkable instability”. Also, the “conversion by human QC” value at QC [4] is reported as “Neither of these compounds were converted”.
In the case of `COC(=O)CC[C@H](N)C(=O)N[C@@H](Cc1ccccc1)C(=O)N[C@@H](CCCCN)C(=O)N[C@@H](CCCNC(=N)N)C(=O)N[C@@H](CC(C)C)C(=O)N[C@@H](C)C(N)=O` [H-Glu(OMe)-Phe-Lys-Arg-Leu-Ala-NH2] (H-E(OMe)FKRLA-NH2), the “inhibition of human QC by the peptide” value at QC [4] was “not inhibited”.
Regarding `C[C@H](NC(=O)[C@H](C)NC(=O)[C@@H](N)CCC(N)=O)C(N)=O` [H-Gln-Ala-Ala-NH2] (H-Gln-Ala-Ala-NH2), the catalytic constant (kcat) at QC [2] (Table 7, substrate length) stood at 76.3 ± 0.7 s⁻¹.
For the compound `Cn1cnc(CCN)c1` [1-methyl-4-(β-aminoethyl)-imidazole], the “inhibition of human QC” value against QC [5] was “complete loss of inhibitory activity”. Moreover, on QC [5] (Table 4, n.i. = no inhibition), the Ki value entry is reported as “n.i”.
On to `NC(=O)CC[C@H](N)C(N)=O` [H-Gln-NH2], for which, on QC [2] (0.05 M Tris-HCl, pH 8.0), the Km turned out to be 442 ± 30 µM. For the same compound, the kcat on QC [2] (0.05 M Tris-HCl, pH 8.0) came to 12.8 ± 0.3 s⁻¹; on QC [2] (setting [7]), 12.2 ± 0.1 s⁻¹; at QC [2] (Table 6, n.r. = not reactive), 12.8 ± 0.5 s⁻¹. Moreover, the inhibition constant (Ki) (usually a measure of affinity in units of concentration, obtained from inhibition or displacement) on QC [2] (setting [7]) is on record as “n.i”; at QC [2] (0.05 M Tris-HCl, pH 8.0), “n.i”. Moreover, the “Ki*” value at QC [2] (Table 6) is “n.i”.
With “H-QAASAA-NH2 [H-Gln-Ala-Ala-Ser-Ala-Ala-NH2]”, at QC [2] (Table 7, substrate length), the Michaelis constant (Km) was found to be 79 ± 6 µM and the catalytic constant (kcat) was determined as 55.3 ± 1.6 s⁻¹.
At QC [5] (30° C., 0.05 M Tris-HCl pH 8.0, 5 mM EDTA), `O=C1CNC(=S)N1CCCn1ccnc1` [3-[3-(1H-imidazol-1-yl)propyl]-2-thioxoimidazolidin-4-one] yielded an inhibition constant (Ki) of 810 ± 10 nM.
Turning to `O=S(=O)([O-])[O-].[Zn+2]` [ZnSO4], the “restoration of QC activity after inactivation” value at QC [6] (metal ion incubation in presence of 0.5 mM EDTA) is given as “Near-total restoration”.
Consider “H-βhomoGln-Phe-Lys-Arg-Leu-Ala-NH2 (H-[β3hQ]FKRLA-NH2; SMILES CC(C)C[C@H](NC(=O)[C@H](CCCNC(=N)N)NC(=O)[C@H](CCCCN)NC(=O)[C@H](Cc1ccccc1)NC(=O)C[C@@H](N)CCC(N)=O)C(=O)N[C@@H](C)C(N)=O)”, for which, in the data set with QC [2], the Michaelis constant (Km) came to 2500 ± 200 µM, the “fold reduced efficiency of cyclization compared to peptides of similar size with N-terminal glutaminyl residue” value was “approximately 1000 fold” and the “kcat (turnover number)” value worked out at 3.5 ± 0.1 s⁻¹.
As to “[Gln^1]-GnRH: GnRH with N-terminal glutamine: QHWSYGL RP(G) amide”, in the data set with QC [2] (Table 1), the Km turned out to be 53 ± 3 µM and the turnover number (kcat) worked out at 69.2 ± 1.1 s⁻¹.
Turning to `Oc1cccc2cccnc12` [8-hydroxyquinoline], the “inhibition of human QC catalyzed substrate cyclization by chelators” value (shortened to “inhibition … by chelators”) against QC [6] is on record as “abolished”.
With “H-EFKRLA-NH2 [H-Glu-Phe-Lys-Arg-Leu-Ala-NH2]”, the “inhibition of human QC by the peptide” value at QC [4] is recorded as “not inhibited”.
For the compound `NC(=O)CC[C@H](N)C(=O)N[C@@H](Cc1ccc(O)cc1)C(=O)O` [H-Gln-Tyr-OH] (H-Gln-Tyr-OH), at QC [2], the Km turned out to be 211 ± 5 µM. Moreover, on QC [2] (Table 6), the “Ki*” value is “n.i”. Besides, the catalytic constant (kcat) on QC [2] (Table 6, n.r. = not reactive) came to 94 ± 1 s⁻¹.
On to “H-Gln-cyclo(Nε-Lys-Arg-Pro-Ala-Gly-Phe) (H-QKRPAGF; lactam 2-C; SMILES C[C@@H]1NC(=O)[C@@H]2CCCN2C(=O)[C@H](CCCNC(=N)N)NC(=O)[C@@H](NC(=O)[C@@H](N)CCC(N)=O)CCCCNC(=O)[C@H](Cc2ccccc2)NC(=O)CNC1=O)”, for which, in the data set with QC [2], the Km was found to be 240 ± 14 µM and the “kcat (turnover number)” value stood at 22.8 ± 0.6 s⁻¹.
Regarding `NC(=O)CC[C@H](N)C(=O)N[C@@H](CCC(=O)O)C(=O)O` [H-Gln-Glu-OH] (H-Gln-Glu-OH), the turnover number (kcat) amounted to 21.4 ± 0.3 s⁻¹ at QC [2] (0.05 M Tris-HCl, pH 8.0); 18.9 ± 0.5 s⁻¹ at QC [2] (setting [7]); 24.7 ± 0.2 s⁻¹ at QC [2] (Table 6, n.r. = not reactive). Further, the Ki entry on QC [2] (setting [7]) is recorded as “n.i”; at QC [2] (0.05 M Tris-HCl, pH 8.0) it was “n.i”. On QC [2] (Table 6), the “Ki*” value was “n.i”. Moreover, the Km on QC [2] (pH 8) is 373 µM and 607 µM.
Take “QFRHDSGYEVHHQKLVFFA-NH2 [[Gln^3]Aβ3-21a]”: on QC [2] (setting [8]), the Km was determined as 162 ± 12 µM and the kcat came out at 62 ± 3 s⁻¹.
As to `CC(C)(C)OC(=O)C(N)CCC(N)=O` (stereo not drawn) [H-Gln-OtBu], at QC [2] (Table 6), the “Ki*” value was “n.i”. On QC [2] (Table 6, n.r. = not reactive), the Km came out at 1240 ± 74 µM and the turnover number (kcat) was found to be 6.7 ± 0.2 s⁻¹.
For `C[C@H](NC(=O)[C@@H](N)CCC(N)=O)C(N)=O` [H-Gln-Ala-NH2] (H-Gln-Ala-NH2), the catalytic constant (kcat) on QC [2] (Table 7, substrate length) was determined as 40.1 ± 0.9 s⁻¹.
For `NC(=O)CC[C@H](N)C(=O)Nc1ccc2ccccc2c1` [H-Gln-βNA], in data set [3] (pH 6.0, followed for 4 weeks), the “first-order rate constant of nonenzymatic pGlu-formation” value is given as 1.2*10^−7 s^−1. Further, the kcat was 20.6 ± 0.5 s⁻¹ at QC [2]; 21.7 ± 0.5 s⁻¹ and 20.0 ± 0.4 s⁻¹ at QC [2] (pH 8).
On to `c1ccc(-n2ccnc2)cc1` [1-phenylimidazole], for which the “inhibition of human QC” value on QC [5] was “inactive under the experimental conditions”.
In the case of `Cc1cc(=O)oc2cc(NC(=O)[C@@H](N)CCC(N)=O)ccc12` [H-Gln-AMC], on QC [2] (Table 6, n.r. = not reactive), the Michaelis constant (Km) turned out to be 54 ± 2 µM and the turnover number (kcat) was determined as 5.3 ± 0.1 s⁻¹.
On to `CC(C)[C@H](NC(=O)[C@@H](N)CCC(N)=O)C(=O)O` [H-Gln-Val-OH] (H-Gln-Val-OH), for which the Km at QC [2] came out at 196 ± 5 µM. In addition, the “Ki*” value at QC [2] (Table 6) is on record as “n.i”. For the same compound, the turnover number (kcat) on QC [2] (Table 6, n.r. = not reactive) amounted to 17.2 ± 0.1 s⁻¹.
`O=C(O)CN(CCN(CC(=O)O)CC(=O)O)CC(=O)O` [EDTA]: the “inhibition of mammalian QC” value in the data set with mammalian QC is recorded as “did not inhibit”. At QC [6], the “inhibition … by chelators” value is given as “did not show remarkable inhibition”.
In the case of `C[C@H](NC(=O)[C@@H](N)CCC(N)=O)C(=O)O` [H-Gln-Ala-OH] (H-Gln-Ala-OH), the Km at QC [2] is 232 ± 5 µM; at QC [2] (pH 8), 269 µM and 357 µM. In addition, the kcat at QC [2] (0.05 M Tris-HCl, pH 8.0) was 54.4 ± 0.5 s⁻¹; at QC [2] (setting [7]), 47.6 ± 0.6 s⁻¹; at QC [2] (Table 6, n.r. = not reactive), 57.2 ± 0.4 s⁻¹. In addition, the Ki entry on QC [2] (setting [7]) is given as “n.i”; on QC [2] (0.05 M Tris-HCl, pH 8.0) it was “n.i”. Besides, the “Ki*” value at QC [2] (Table 6) was “n.i”.
Take `O=C(O)c1cccc(C(=O)O)n1` [dipicolinic acid]: on QC [6], the “inactivation of human QC after extensive dialysis” value is recorded as “almost completely inactivated” and the “inhibition … by chelators” value is on record as “abolished”.
